Key:
Assay in all cases: relative viability (nuclei count vs DMSO), 5 days (fraction); higher = more cells survive
[1] = compound: C[C@]12O[C@H](C[C@]1(O)CO)n1c3ccccc3c3c4c(c5c6ccccc6n2c5c31)CNC4=O [Lestaurtinib] + O=C(c1cc(Cc2n[nH]c(=O)c3ccccc23)ccc1F)N1CCN(C(=O)C2CC2)CC1 [Olaparib] (partner 8 µM)
Procedure, shortened: (§1)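 Relative viability equals treated-well nuclei counts divided by vehicle-well nuclei counts. Counts came from 4× images of lung cancer cell lines grown in 1536-well plates for 5 days after pin-tool dosing on the day after seeding. Dosing used one drug alone or a fixed anchor-drug dose plus five library-drug doses (not always all listed) in √10 steps, and values are medians of duplicate plates.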

[2] = compound: C[C@]12O[C@H](C[C@]1(O)CO)n1c3ccccc3c3c4c(c5c6ccccc6n2c5c31)CNC4=O [Lestaurtinib] + N=C(N)NC(=N)NCCc1ccccc1 [Phenformin] (partner 250 µM)
Procedure, shortened: as §1

[3] = compound: C1=CC(=CC=C1C2=CC(=C(S2)NC(=O)N)C(=O)N)F [TPCA-1] + CS(=O)(=O)CCNCc1ccc(-c2ccc3ncnc(Nc4ccc(OCc5cccc(F)c5)c(Cl)c4)c3c2)o1 [Lapatinib] (partner 2 µM)
Procedure, shortened: as §1

[4] = compound: C1/C(=C\C2=CC=CS2)/C(=O)/C(=C/C3=CC=CS3)/C1 + N=C(N)NC(=N)NCCc1ccccc1 [Phenformin] (partner 250 µM)
Procedure, shortened: as §1

Row | Cell Line | relative viability ([1]; first compound 0.005 µM) | relative viability ([1]; first compound 0.01581 µM) | relative viability ([1]; first compound 0.05 µM) | relative viability ([1]; first compound 0.1581 µM) | relative viability ([1]; first compound 0.5 µM) | relative viability ([2]; first compound 0.005 µM) | relative viability ([2]; first compound 0.01581 µM) | relative viability ([2]; first compound 0.05 µM) | relative viability ([2]; first compound 0.1581 µM) | relative viability ([2]; first compound 0.5 µM) | relative viability ([3]; first compound 0.04 µM) | relative viability ([3]; first compound 0.1265 µM) | relative viability ([3]; first compound 0.4 µM) | relative viability ([3]; first compound 1.265 µM) | relative viability ([3]; first compound 4 µM) | relative viability ([4]; first compound 0.2 µM) | relative viability ([4]; first compound 0.6325 µM) | relative viability ([4]; first compound 2 µM) | relative viability ([4]; first compound 6.325 µM) | relative viability ([4]; first compound 20 µM)
1 | COR-L23 | 0.374 | 0.428 | 0.37 | 0.339 | 0.156 | 0.527 | 0.551 | 0.256 | 0.327 | 0.14 | 1.09 | 0.859 | 0.903 | 1.09 | 0.678 | 0.458 | 0.465 | 0.376 | 0.433 | 0.476
2 | COR-L 105 | 0.64 | 0.685 | 0.792 | 0.579 | 0.498 | 0.465 | 0.476 | 0.371 | 0.353 | 0.238 | 0.379 | 0.368 | 0.384 | 0.272 | 0.268 | 0.526 | 0.491 | 0.499 | – | 0.481
3 | EKVX | 0.941 | – | 0.947 | 1.07 | 0.641 | 0.207 | 0.245 | 0.231 | 0.244 | 0.239 | 0.217 | 0.184 | 0.241 | 0.198 | 0.205 | 0.252 | 0.247 | 0.218 | 0.231 | 0.249
4 | EMC-BAC-2 | 0.531 | 0.466 | 0.493 | 0.356 | 0.29 | 0.476 | 0.567 | 0.424 | 0.364 | 0.26 | 0.993 | 0.854 | 0.895 | 0.752 | 0.756 | 0.549 | 0.513 | 0.558 | 0.521 | 0.521
5 | EPLC-272H | 0.58 | 0.53 | 0.503 | 0.359 | 0.108 | 0.273 | 0.306 | 0.281 | 0.225 | 0.125 | 1.28 | 0.829 | 0.947 | 0.954 | 0.775 | 0.289 | 0.318 | 0.298 | 0.238 | 0.276
6 | H3255 | 0.563 | 0.535 | 0.54 | 0.525 | 0.397 | 0.313 | 0.315 | 0.379 | 0.286 | 0.294 | 0.261 | 0.24 | 0.236 | 0.219 | 0.162 | 0.377 | 0.324 | 0.352 | 0.34 | 0.309
7 | HARA | 1.03 | 0.899 | 0.441 | 0.886 | 0.237 | 0.507 | 0.477 | 0.369 | 0.358 | 0.251 | 0.744 | 0.988 | 0.791 | 0.722 | 0.691 | 0.449 | 0.452 | 0.481 | 0.444 | 0.407
8 | HCC-15 | 0.863 | 0.756 | 0.782 | 0.777 | 0.167 | 0.538 | 0.55 | 0.334 | 0.305 | 0.132 | 0.942 | 0.856 | 0.908 | 0.819 | 0.52 | 0.516 | 0.467 | 0.545 | 0.445 | 0.442
9 | HCC-44 | 0.994 | 0.984 | 0.96 | 1.16 | 0.675 | 0.194 | 0.193 | 0.173 | 0.283 | 0.185 | 0.974 | 0.961 | 1 | 0.913 | 0.904 | 0.161 | 0.27 | 0.278 | 0.21 | 0.161
10 | HCC-78 | 0.843 | 0.835 | 0.765 | 0.566 | 0.385 | 0.658 | 0.816 | 0.556 | 0.425 | 0.406 | 0.628 | 0.35 | 0.718 | 0.672 | 0.0936 | 0.654 | 0.78 | 0.945 | 0.603 | 0.695
11 | HCC-366 | 0.375 | 0.338 | 0.35 | 0.455 | 0.254 | 0.618 | 0.642 | 0.656 | 0.603 | 0.48 | 1.06 | 1.01 | 1.02 | 1.02 | 0.217 | 0.569 | 0.638 | 0.625 | 0.55 | 0.613
12 | HCC-827 | 0.585 | 0.654 | 0.665 | 0.508 | 0.484 | 0.359 | 0.44 | 0.36 | 0.316 | 0.265 | 0.193 | 0.198 | 0.188 | 0.166 | 0.132 | 0.426 | 0.414 | 0.433 | 0.411 | 0.388
13 | HOP-62 | 0.287 | 0.763 | 0.515 | 0.525 | 0.16 | 0.637 | 0.768 | 0.485 | 0.613 | 0.274 | 1.23 | 0.901 | 1.02 | 0.882 | 0.873 | 0.686 | 0.714 | 0.531 | 0.664 | 0.672
14 | LC-2-ad | 0.82 | 0.823 | 0.832 | 0.55 | 0.28 | 0.554 | 0.772 | 0.561 | 0.385 | 0.26 | 0.986 | 0.933 | 1.02 | 0.953 | 0.186 | 0.632 | 0.584 | 0.671 | 0.555 | 0.605
15 | LCLC-97TM1 | – | 0.456 | 0.299 | 0.185 | 0.188 | 0.47 | 0.442 | 0.403 | 0.325 | 0.2 | 1.47 | 0.719 | 1.3 | 0.852 | 0.518 | 0.389 | 0.473 | 0.437 | 0.476 | 0.482
